For one assay, the system named is Jurkat FADD (−/−) Cells. Kind of assay: TNF-α induced necroptosis of Jurkat FADD-deficient cells (CellTiter-Glo cell survival). The assay is classed as cell-based, human. To be noted: Homo sapiens, Jurkat, 13 h. Here is the method:
1. Cell Activity Testing System (TNF-α Induces the Necroptosis of Jurkat Cells, the Human Leukemia Cells Deficient in FADD).
(1) Cell culture: Jurkat FADD-deficient cells were cultured in an RPMI 1640 medium with 10% fetal bovine serum (FBS), 100 U/mL penicillin, and 100 […]. The cells were cultured in a cell culture incubator at 37° C. with 5% CO2. And all the cells were cryopreserved in a complete medium containing 5-10% DMSO. Medium change and passage were performed 3-4 times per week.
(4) Experimental scheme: The system of TNF-α inducing the necroptosis of Jurkat FADD-deficient cells was used to screen for compounds with RIPKl kinase inhibitory activity.
Jurkat FADD-deficient cells were evenly inoculated into a 384-well plate with each well added with a 40 μL complete culture medium, followed by the addition of 5 μL of the under-testing compound to each well. The initial concentration of the compounds was set at 25 μM (for some compounds with higher activity, the initial concentration was set at 0.5 μM), with a three-fold gradient dilution, totaling 12 gradient points. Three replicate wells were set for each compound. In addition, there was a blank control group and a control group with TNFα stimulation only. After the compound was added, the mixture needed to be centrifuged and incubated in a cell culture incubator at 37° C. containing 5% CO2 for 1 hour. After that, 5 μL of 5 ng/mL TNFα was added to stimulate the occurrence of necroptosis. After centrifugation and mixing, the mixture was placed in the cell culture incubator for 13 hours (until the cell death rate reaches 65% in the group with only TNF-α), with a total volume of 50 μL per well. Then, the steps below were followed to test the cell survival rate.
The CellTiter-Glo® Buffer was removed from the reagent kit, equilibrated to room temperature, and used to dissolve the CellTiter-Glo® Substrate. The CellTiter-Glo® Reagent obtained could be directly used for the experiment.
15 μL of CellTiter-Glo® Reagent which has been equilibrated to room temperature was added to each well, and incubated in the dark for 15 minutes. After that, a microplate reader (Enspire Multimode Plate Reader of PerkinElmer, USA) was used to measure the chemiluminescence.
On to `COC(=O)C(=O)c1cn2c3c(cccc13)N(C)C(=O)[C@@H](NC(=O)c1nnc(Cc3ccccc3)[nH]1)C2` [T-92, Methyl(S)-2-(3-(5-benzyl-4H-1,2,4-triazole-3-carboxamide)-1-methyl-2-oxo-1,2,3,4-tetrahydro-[1,4]diazepine [3,2,1-hi]indol-7-yl)-2-oxoacetic Acid], for which the IC50 was above 1000 nM.

The assay is the same for the next values; noted with them: Homo sapiens; TNF-α induced necroptosis, Jurkat FADD-deficient cells, 13 hours, CellTiter-Glo; read-out: IC50.
In the case of `CSc1cn2c3c(cccc13)N(C)C(=O)C(NC(=O)c1nnc(Cc3ccccc3)[nH]1)C2` (racemic) [T-4, (±)-5-benzyl-N-(1-methyl-7-(methylthio)-2-carbonyl-1,2,3,4-tetrahydro-[1,4]diazepino [3,2,1-hi]indol-3-yl)-4H-1,2,4-triazole-3-carboxamide], the IC50 is 10 to 100 nM.

With `COC(=O)c1nccnc1-n1cc2c3c(cccc31)N(C)C(=O)C(NC(=O)c1nnc(Cc3ccccc3)[nH]1)C2` (racemic) [T-50, (±)-3-(3-(5-benzyl-4H-1,2,4-triazole-3-carboxamide)-1-methyl-2-oxo-1,2,3,4-tetrahydro-6H-azacyclo [4,3,2-cd]indol-6-yl)methyl pyrazine-2-carboxylate], the IC50 was below 10 nM.

For `CN1C(=O)C(NC(=O)c2nnc(Cc3ccccc3)[nH]2)Cc2cn(-c3ncccc3CF)c3cccc1c23` (racemic) [T-54, (±)-5-benzyl-N-(6-(3-(fluoromethyl)pyridin-2-yl)-1-methyl-2-oxo-2,3,4,6-tetrahydro-1H-azacyclo [4,3,2-cd]indol-3-yl)-4H-1,2,4-triazole-3-carboxamide], the IC50 was below 10 nM.

Consider `CN1C(=O)[C@@H](NC(=O)c2nnc(Cc3ccccc3)[nH]2)Cn2cc(-c3cnn(C4CC4)c3)c3cccc1c32` [T-121, (S)-5-benzyl-N-(7-(1-cyclopropyl-1H-pyrazol-4-yl)-1-methyl-2-oxo-1,2,3,4-tetrahydro-1,4-diazepino [3,2,1-hi]indol-3-yl)-4H-1,2,4-triazole-3-carboxamide], for which the IC50 was 10 to 100 nM.

Take `CN1C(=O)C(NC(=O)c2nnc(Cc3ccccc3)[nH]2)Cc2cn(CC3CC3)c3cccc1c23` (racemic) [T-22, (±)-5-benzyl-N-(6-(cyclopropylmethyl)-1-methyl-2-oxo-2,3,4,6-tetrahydro-1H-azacyclo [4,3,2-cd]indol-3-yl)-4H-1,2,4-triazole-3-carboxamide]: the IC50 fell in the range of 10 to 100 nM.

Regarding `CN1C(=O)C(NC(=O)c2nnc(Cc3ccccc3)[nH]2)Cn2ccc3cc(F)cc1c32` (racemic) [T-7, (±)-5-benzyl-N-(9-fluoro-1-methyl-2-oxo-1,2,3,4-tetrahydro-[1,4]diazepino [3,2,1-hi]indol-3-yl)-4H-1,2,4-triazole-3-carboxamide], the IC50 was 10 to 100 nM.

Take `CN1C(=O)[C@@H](NC(=O)c2nnc(Cc3ccccc3)[nH]2)Cn2cc(-c3ccn[nH]3)c3cccc1c32` [T-116, (S)-5-benzyl-N-(1-methyl-2-oxo-7-(1H-pyrazol-5-yl)-1,2,3,4-tetrahydro-[1,4]diazepine [3,2,1-hi]indol-3-yl)-4H-1,2,4-triazole-3-carboxamide]: the IC50 was 10 to 100 nM.

Regarding `COC(=O)c1ncncc1-n1cc2c3c(cccc31)N(C)C(=O)C(NC(=O)c1nnc(Cc3ccccc3)[nH]1)C2` (racemic) [T-51, (±)-5-(3-(5-benzyl-4H-1,2,4-triazole-3-carboxamide)-1-methyl-2-oxo-1,2,3,4-tetrahydro-6H-azacyclo [4,3,2-cd]indol-6-yl)pyrimidine-4-carboxylic Acid Methyl Ester], the IC50 lay within 10 to 100 nM.

With `CN1C(=O)C(NC(=O)c2nnc(Cc3ccccc3)[nH]2)Cn2cc(-c3ccnc(C(F)(F)F)c3)c3cccc1c32` (racemic) [T-77, (±)-5-benzyl-N-(1-methyl-2-oxo-7-(2-(trifluoromethyl)pyridin-4-yl)-1,2,3,4-tetrahydro-[1,4]diazepino [3,2,1-hi]indol-3-yl)-4H-1,2,4-triazole-3-carboxamide], the IC50 lay in the range of 100 to 1000 nM.

As to `CNS(=O)(=O)c1cccnc1-n1cc2c3c(cccc31)N(C)C(=O)C(NC(=O)c1nnc(Cc3ccccc3)[nH]1)C2` (racemic) [T-75, (±)-5-benzyl-N-(1-methyl-6-(3-(N-methylsulfamoyl)pyridin-2-yl)-2-oxo-2,3,4,6-tetrahydro-1H-azacyclo [4,3,2-cd]indol-3-yl)-4H-1,2,4-triazole-3-carboxamide], the IC50 is 10 to 100 nM.

Consider `COCCn1cc2c3c(cccc31)N(C)C(=O)C(NC(=O)c1nnc(Cc3ccccc3)[nH]1)C2` (racemic) [T-28, (±)-5-benzyl-N-(6-(2-methoxyethyl)-1-methyl-2-oxo-2,3,4,6-tetrahydro-1H-azacyclo [4,3,2-cd]indol-3-yl)-4H-1,2,4-triazole-3-carboxamide], for which the 50% inhibitory concentration (IC50) was below 10 nM.

Take `CN1C(=O)C(NC(=O)c2nnc(Cc3ccccc3)[nH]2)Cn2cc(-c3ncccc3C(F)(F)F)c3cccc1c32` (centres unmarked) [T-82, 5-benzyl-N-(1-methyl-2-oxo-7-(3-(trifluoromethyl)pyridin-2-yl)-1,2,3,4-tetrahydro-[1,4]diazepino[3,2,1-hi]indol-3-yl)-4H-1,2,4-triazole-3-carboxamide]: the 50% inhibitory concentration (IC50) was below 10 nM.

Consider `CN1C(=O)C(NC(=O)c2nnc(Cc3ccccc3)[nH]2)Cc2cn(-c3ncccc3S(C)(=O)=O)c3cccc1c23` (racemic) [T-68, (±)-5-benzyl-N-(1-methyl-6-(3-(methylsulfonyl)pyridin-2-yl)-2-oxo-2,3,4,6-tetrahydro-1H-azepine [4,3,2-cd]indol-3-yl)-4H-1,2,4-triazole-3-carboxamide], for which the IC50 is below 10 nM.

With `CN1C(=O)C(NC(=O)c2nnc(Cc3ccccc3)[nH]2)Cn2cc(-c3cccnc3)c3cccc1c32` (racemic) [T-17, (±)-5-benzyl-N-(1-methyl-2-oxo-7-(pyridin-3-yl)-1,2,3,4-tetrahydro-[1,4]diazepino [3,2,1-hi]indol-3-yl)-4H-1,2,4-triazole-3-carboxamide], the 50% inhibitory concentration (IC50) is 10 to 100 nM.

Consider `Cc1cccnc1-n1cc2c3c(cccc31)N(C)C(=O)C(NC(=O)c1nnc(Cc3ccccc3)[nH]1)C2` (racemic) [T-44, (±)-5-benzyl-N-(1-methyl-6-(3-methylpyridin-2-yl)-2-oxo-2,3,4,6-tetrahydro-1H-azacyclo [4,3,2-cd]indol-3-yl)-4H-1,2,4-triazole-3-carboxamide], for which the IC50 is below 10 nM.

On to `CN1C(=O)C(NC(=O)c2nnc(Cc3ccccc3)[nH]2)Cc2cn(-c3ccncc3)c3cccc1c23` (racemic) [T-102, (±)-5-benzyl-N-(1-methyl-2-oxo-6-(pyridin-4-yl)-2,3,4,6-tetrahydro-1H-azacyclo [4,3,2-cd]indol-3-yl)-4H-1,2,4-triazole-3-carboxamide], for which the IC50 lay within 10 to 100 nM.

As to `CN1C(=O)C(NC(=O)c2nnc(Cc3ccccc3)[nH]2)Cc2cn(-c3ncccc3P(C)(C)=O)c3cccc1c23` (racemic) [T-110, (±)-5-benzyl-N-(6-(3-(dimethylphosphoryl)pyridin-2-yl)-1-methyl-2-oxo-2,3,4,6-tetrahydro-1H-aza [4,3,2-cd]indol-3-yl)-4H-1,2,4-triazole-3-carboxamide], the IC50 is above 1000 nM.

With `CN1C(=O)C(NC(=O)c2nnc(Cc3ccccc3)[nH]2)Cn2cc(C#N)c3cccc1c32` (racemic) [T-76, (±)-5-benzyl-N-(7-cyano-1-methyl-2-oxo-1,2,3,4-tetrahydro-[1,4]diazepino [3,2,1-hi]indol-3-yl)-4H-1,2,4-triazole-3-carboxamide], the IC50 lay in the range of 10 to 100 nM.

Take `CN1C(=O)[C@@H](NC(=O)c2nnc(Cc3ccccc3)[nH]2)Cc2n[nH]c3cccc1c23` [T-72, (S)-5-benzyl-N-(6-methyl-7-oxo-6,7,8,9-tetrahydro-2H-azacyclo [4,3,2-cd]indazol-8-yl)-4H-1,2,4-triazole-3-carboxamide]: the IC50 was 100 to 1000 nM.

With `CCS(=O)(=O)c1cccnc1-n1cc2c3c(cccc31)N(C)C(=O)C(NC(=O)c1nnc(Cc3ccccc3)[nH]1)C2` (racemic) [T-108, (±)-5-benzyl-N-(6-(3-(ethylsulfonyl)pyridin-2-yl)-1-methyl-2-oxo-2,3,4,6-tetrahydro-1H-aza [4,3,2-cd]indol-3-yl)-4H-1,2,4-triazole-3-carboxamide], the IC50 was 10 to 100 nM.

With `CCN1C(=O)C(NC(=O)c2nnc(Cc3ccccc3)[nH]2)Cn2ccc3cccc1c32` (racemic) [T-10, (±)-5-benzyl-N-(1-ethyl-2-oxy-1,2,3,4-tetrahydro-[1,4]diazepino [3,2,1-hi]indol-3-yl)-4H-1,2,4-triazole-3-carboxamide], the IC50 is 10 to 100 nM.

The assay is the same for the next values; noted with them: TNF-α induced necroptosis, Jurkat FADD-deficient cells, 13 hours, CellTiter-Glo; read-out: IC50.
Turning to `CN1C(=O)[C@@H](NC(=O)c2nnc(Cc3ccccc3)[nH]2)Cn2ccc3c(-c4c[nH]nc4C(F)(F)F)ccc1c32` [T-113, (S)-5-benzyl-N-(1-methyl-2-oxo-7-(3-(trifluoromethyl)-1H-pyrazol-4-yl)-1,2,3,4-tetrahydro-[1,4]diazepine [3,2,1-hi]indol-3-yl)-4H-1,2,4-triazole-3-carboxamide], the IC50 is below 10 nM.

The values are drawn from patent US20250049812A1, “Compounds that Inhibit Necroptosis and Their Preparation Methods” (SHANGHAI INSTITUTE OF ORGANIC CHEMISTRY, CHINESE ACADEMY OF …, priority 2021, published 2025).
